pEC50: −log10 of the molar value. Counter-ions that a name gives are not always drawn.
What follows are compounds tested on recombinant NL4-3 virus (Renilla luciferase in nef, Gag P373S; NLRluc) in MT-2 cells (assay: whole plant or invertebrate). Conditions: Renilla, NL43.
Assay type: cell-based, HIV
Outline: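 Read-out is Renilla luciferase, measured immediately after adding a premixed lysis/Dual Luciferase reagent. The reporter virus, NL4-3 with luciferase replacing part of nef plus Gag P373S, infected MT-2 cells for 4–5 days under serially diluted inhibitor.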

SMILES | pEC50
C=C(C)[C@@H]1CC[C@]2(NCCNC3CCS(=O)(=O)C3)CC[C@]3(C)[C@H](CC[C@@H]4[C@@]5(C)CC=C(c6ccc(C(=O)O)cc6)C(C)(C)[C@@H]5CC[C@]43C)[C@@H]12 (stereo partly drawn) [Example B8, 4-((1R,3aS,5aR,5bR,7aR,11aS,11bR,13aR,13bR)-3a-((2-((1,1-dioxidotetrahydrothiophen-3-yl)amino)ethyl)amino)-5a,5b,8,8,11a-pentamethyl-1-(prop-1-en-2-yl)-2,3,3a,4,5,5a,5b,6,7,7a,8,11,11a,11b,12,13,13a,13b-octadecahydro-1H-cyclopenta[a]chrysen-9-yl)benzoic acid] | > 7.00

Same assay, conditions: Renilla, NL43, luciferase activity in cells infected for 4-5 days with NLRluc recombinants, serial dilutions of inhibitor; class symbols (key in Table 1); read-out: EC50

SMILES | pEC50
C=C(C)[C@@H]1CC[C@]2(NC(=O)OCCN3CCS(=O)(=O)CC3)CC[C@]3(C)[C@H](CC[C@@H]4[C@@]5(C)CC=C(c6ccc(C(=O)O)cc6)C(C)(C)[C@@H]5CC[C@]43C)[C@@H]12 [Example 71, benzoic acid, 4-[(1R,3aS,5aR,5bR,7aR,11aS,11bR,13aR,13bR)-3a-[[[2-(1,1-dioxido-4-thiomorpholinyl)ethoxy]carbonyl]amino]-2,3,3a,4,5,5a,5b,6,7,7a,8,11,11a,11b,12,13,13a,13b-octadecahydro-5a,5b,8,8,11a-pentamethyl-1-(1-methylethenyl)-1H-cyclopenta[a]chrysen-9-yl]] | > 7.00
C=C(C)[C@@H]1CC[C@]2(NC(=O)N3CCNCC3)CC[C@]3(C)[C@H](CC[C@@H]4[C@@]5(C)CC=C(c6ccc(C(=O)O)cc6)C(C)(C)[C@@H]5CC[C@]43C)[C@@H]12 [Example 45, 4-((1R,3aS,5aR,5bR,7aR,11aS,11bR,13aR,13bR)-5a,5b,8,8,11a-pentamethyl-3a-(piperazine-1-carboxamido)-1-(prop-1-en-2-yl)-2,3,3a,4,5,5a,5b,6,7,7a,8,11,11a,11b,12,13,13a,13b-octadecahydro-1H-cyclopenta[a]chrysen-9-yl)benzoic acid] | > 7.00
C=C(C)[C@@H]1CC[C@]2(NCCN3CC4(COC4)C3)CC[C@]3(C)[C@H](CC[C@@H]4[C@@]5(C)CC=C(c6ccc(C(=O)O)cc6)C(C)(C)[C@@H]5CC[C@]43C)[C@@H]12 [Example B17, 4-((1R,3aS,5aR,5bR,7aR,11aS,11bR,13aR,13bR)-3a-((2-(2-oxa-6-azaspiro[3.3]heptan-6-yl)ethyl)amino)-5a,5b,8,8,11a-pentamethyl-1-(prop-1-en-2-yl)-2,3,3a,4,5,5a,5b,6,7,7a,8,11,11a,11b,12,13,13a,13b-octadecahydro-1H-cyclopenta[a]chrysen-9-yl)benzoic acid] | > 7.00
C=C(C)[C@@H]1CC[C@]2(NCCc3ccncc3)CC[C@]3(C)[C@H](CC[C@@H]4[C@@]5(C)CC=C(c6ccc(C(=O)O)cc6)C(C)(C)[C@@H]5CC[C@]43C)[C@@H]12 [Example 166, 4-((1R,3aS,5aR,5bR,7aR,11aS,11bR,13aR,13bR)-5a,5b,8,8,11a-pentamethyl-1-(prop-1-en-2-yl)-3a-((2-(pyridin-4-yl)ethyl)amino)-2,3,3a,4,5,5a,5b,6,7,7a,8,11,11a,11b,12,13,13a,13b-octadecahydro-1H-cyclopenta[a]chrysen-9-yl)benzoic acid] | > 7.00
C=C(C)[C@@H]1CC[C@]2(NCCCN3CCS(=O)(=O)CC3)CC[C@]3(C)[C@H](CC[C@@H]4[C@@]5(C)CC=C(c6ccc(C(=O)O)c(F)c6)C(C)(C)[C@@H]5CC[C@]43C)[C@@H]12 [Example A6, benzoic acid, 4-[(1R,3aS,5aR,5bR,7aR,11aS,11bR,13aR,13bR)-3a-[[3-(1,1-dioxido-4-thiomorpholinyl)propyl]amino]-2,3,3a,4,5,5a,5b,6,7,7a,8,11,11a,11b,12,13,13a,13b-octadecahydro-5a,5b,8,8,11a-pentamethyl-1-(1-methylethenyl)-1H-cyclopenta[a]chrysen-9-yl]-2-fluoro-] | > 7.00
CC(C)[C@@H]1CC[C@]2(NC(=O)CN3CCS(=O)(=O)CC3)CC[C@]3(C)[C@H](CC[C@@H]4[C@@]5(C)CC=C(c6ccc(C(=O)O)cc6)C(C)(C)[C@@H]5CC[C@]43C)[C@@H]12 [Example 129, 4-((1S,3aS,5aR,5bR,7aR,11aS,11bR,13aR,13bR)-3a-(((1,1-dioxido-4-thiomorpholinyl)acetyl)amino)-1-isopropyl-5a,5b,8,8,11a-pentamethyl-2,3,3a,4,5,5a,5b,6,7,7a,8,11,11a,11b,12,13,13a,13b-octadecahydro-1H-cyclopenta[a]chrysen-9-yl)benzoic acid] | > 7.00
C=C(C)[C@@H]1CC[C@]2(NCc3ccsc3)CC[C@]3(C)[C@H](CC[C@@H]4[C@@]5(C)CC=C(c6ccc(C(=O)O)cc6)C(C)(C)[C@@H]5CC[C@]43C)[C@@H]12 [Example 158, 4-((1R,3aS,5aR,5bR,7aR,11aS,11bR,13aR,13bR)-5a,5b,8,8,11a-pentamethyl-1-(prop-1-en-2-yl)-3a-(thiophen-3-ylmethylamino)-2,3,3a,4,5,5a,5b,6,7,7a,8,11,11a,11b,12,13,13a,13b-octadecahydro-1H-cyclopenta[a]chrysen-9-yl)benzoic acid] | > 7.00
C=C(C)[C@@H]1CC[C@]2(Nc3nc(-c4ccccn4)cs3)CC[C@]3(C)[C@H](CC[C@@H]4[C@@]5(C)CC=C(c6ccc(C(=O)O)cc6)C(C)(C)[C@@H]5CC[C@]43C)[C@@H]12 [Example 187, 4-((1R,3aS,5aR,5bR,7aR,11aS,11bR,13aR,13bR)-5a,5b,8,8,11a-pentamethyl-1-(prop-1-en-2-yl)-3a-(4-(pyridin-2-yl)thiazol-2-ylamino)-2,3,3a,4,5,5a,5b,6,7,7a,8,11,11a,11b,12,13,13a,13b-octadecahydro-1H-cyclopenta[a]chrysen-9-yl)benzoic acid, TFA] | > 7.00
C=C(C)[C@@H]1CC[C@]2(NC(=O)N(CCO)CCN3CCS(=O)(=O)CC3)CC[C@]3(C)[C@H](CC[C@@H]4[C@@]5(C)CC=C(c6ccc(C(=O)O)cc6)C(C)(C)[C@@H]5CC[C@]43C)[C@@H]12 [Example 65, 4-((1R,3aS,5aR,5bR,7aR,11aS,11bR,13aR,13bR)-3a-(((2-(1,1-dioxido-4-thiomorpholinyl)ethyl)(2-hydroxyethyl)carbamoyl)amino)-1-isopropenyl-5a,5b,8,8,11a-pentamethyl-2,3,3a,4,5,5a,5b,6,7,7a,8,11,11a,11b,12,13,13a,13b-octadecahydro-1H-cyclopenta[a]chrysen-9-yl)benzoic acid] | > 7.00
C=C(C)[C@@H]1CC[C@]2(NCCN3CCSCC3)CC[C@]3(C)[C@H](CC[C@@H]4[C@@]5(C)CC=C(c6ccc(C(=O)O)cc6)C(C)(C)[C@@H]5CC[C@]43C)[C@@H]12 [Example 168, 4-((1R,3aS,5aR,5bR,7aR,11aS,11bR,13aR,13bR)-5a,5b,8,8,11a-pentamethyl-1-(prop-1-en-2-yl)-3a-(2-thiomorpholinoethylamino)-2,3,3a,4,5,5a,5b,6,7,7a,8,11,11a,11b,12,13,13a,13b-octadecahydro-1H-cyclopenta[a]chrysen-9-yl)benzoic acid] | > 7.00
C=C(C)[C@@H]1CC[C@]2(NC(=O)Cn3ccnc3)CC[C@]3(C)[C@H](CC[C@@H]4[C@@]5(C)CC=C(c6ccc(C(=O)O)cc6)C(C)(C)[C@@H]5CC[C@]43C)[C@@H]12 [Example 89, 4-((1R,3aS,5aR,5bR,7aR,11aS,11bR,13aR,13bR)-3a-(2-(1H-imidazol-1-yl)acetamido)-5a,5b,8,8,11a-pentamethyl-1-(prop-1-en-2-yl)-2,3,3a,4,5,5a,5b,6,7,7a,8,11,11a,11b,12,13,13a,13b-octadecahydro-1H-cyclopenta[a]chrysen-9-yl)benzoic acid] | > 7.00
C=C(C)[C@@H]1CC[C@]2(NC(=O)CCCN(C)C)CC[C@]3(C)[C@H](CC[C@@H]4[C@@]5(C)CC=C(c6ccc(C(=O)O)cc6)C(C)(C)[C@@H]5CC[C@]43C)[C@@H]12 [Example 74, 4-((1R,3aS,5aR,5bR,7aR,11aS,11bR,13aR,13bR)-3a-(4-(dimethylamino)butanamido)-5a,5b,8,8,11a-pentamethyl-1-(prop-1-en-2-yl)-2,3,3a,4,5,5a,5b,6,7,7a,8,11,11a,11b,12,13,13a,13b-octadecahydro-1H-cyclopenta[a]chrysen-9-yl)benzoic acid] | > 7.00

Same assay, conditions: Renilla, NL43, luciferase activity in cells infected for 4-5 days with NLRluc recombinants, serial dilutions of inhibitor; numeric values; read-out: EC50

SMILES | pEC50
C=C(C)[C@@H]1CC[C@]2(NC(=O)N(C)C)CC[C@]3(C)[C@H](CC[C@@H]4[C@@]5(C)CC=C(c6ccc(C(=O)O)cc6)C(C)(C)[C@@H]5CC[C@]43C)[C@@H]12 [Example 32, 4-((1R,3aS,5aR,5bR,7aR,11aS,11bR,13aR,13bR)-3a-(3,3-dimethylureido)-5a,5b,8,8,11a-pentamethyl-1-(prop-1-en-2-yl)-2,3,3a,4,5,5a,5b,6,7,7a,8,11,11a,11b,12,13,13a,13b-octadecahydro-1H-cyclopenta[a]chrysen-9-yl)benzoic acid] | 8.00
CC(C)NC(=O)CN[C@]12CC[C@@H](C(C)C)[C@@H]1[C@H]1CC[C@@H]3[C@@]4(C)CC[C@H](c5ccc(C(=O)O)cc5)C(C)(C)[C@@H]4CC[C@@]3(C)[C@]1(C)CC2 [Example B9] | 8.00
C=C(C)[C@@H]1CC[C@]2(NCCNc3nccs3)CC[C@]3(C)[C@H](CC[C@@H]4[C@@]5(C)CC=C(c6ccc(C(=O)O)cc6)C(C)(C)[C@@H]5CC[C@]43C)[C@@H]12 [Example 193, 4-((1R,3aS,5aR,5bR,7aR,11aS,11bR,13aR,13bR)-5a,5b,8,8,11a-pentamethyl-1-(prop-1-en-2-yl)-3a-(2-(thiazol-2-ylamino)ethylamino)-2,3,3a,4,5,5a,5b,6,7,7a,8,11,11a,11b,12,13,13a,13b-octadecahydro-1H-cyclopenta[a]chrysen-9-yl)benzoic acid] | 7.70
